Results reported in paper PMC6707612, “Cyclic-di-GMP binds to histidine kinase RavS to control RavS-RavR phosphotransfer and regulates the bacterial lifestyle transition between virulence and swimming” (PLoS Pathogens, 2019).

Tests used:
CA domain of RavS = CA domain of RavS (Xanthomonas campestris pv. campestris, UniProt Q8P9A6); test: microscale thermophoresis (MST) binding; details: read-out: dissociation constant (Kd)
Experimental: (§1) Fig 6 Arg^656 in the CA domain of RavS is a key residue for c-di-GMP binding. (a, b) c-di-GMP binds to the DHp-CA domain of RavS. PAS-A, PAS-B and DHp-CA in (a), and DHp and CA domains of RavS in (b), were purified and the interaction with c-di-GMP was measured by MST. Each assay was repeated three times. Standard deviations are shown. (c) Molecular docking model of the interaction between c-di-GMP and DHp-CA of RavS. c-di-GMP is shown as a ball-and-stick model and DHp-CA is shown in ribbon representation. (d) Schematic view of the predicted docking site between c-di-GMP and DHp-CA. Potential hydrogen bonds are indicated as blue dashed lines. Autodock software was used to predict the interaction. (e) Effect of amino acid substitutions on RavS–c-di-GMP binding. Ten recombinant proteins of the DHp-CA region, each containing a substitution of a putative essential residue involved in c-di-GMP binding, were used in the MST assay to quantify the Kd value of RavS–c-di-GMP binding. fl-c-di-GMP was used in the MST assay. Each experiment was repeated three times. […] The reactions were terminated with 5× SDS loading buffer and the products were separated by 12% SDS-PAGE, exposed to a phosphor screen and analysed by Typhoon FLA7000. […]
(§2) The interaction between c-di-GMP nucleotides and various proteins was measured by using MST with a fluorescein-labelled c-di-GMP (2′-Fluo-AHC-c-di-GMP, abbreviated as fl-c-di-GMP; 2′-Fluo-AHC-c-di-AMP, fl-c-di-AMP; 2′-Fluo-AHC-cGMP, fl-cGMP; Biolog, Germany). These chemicals contain carboxyfluorescein that has excitation and emission wavelengths of 497 nm and 520 nm, respectively, which can be detected directly by a MST instrument. […] Fluorescence intensity due to thermophoresis was recorded using the blue channel optics of the instrument (λex = 470 ± 15 nm, λem = 520 ± 10 nm) during a 30 s period of infrared laser heating at 80% of the maximum laser power, followed by a 5 s cooling period. […]

DHp-CA domain of RavS = DHp-CA domain of RavS (Xanthomonas campestris pv. campestris, UniProt Q8P9A6); test: microscale thermophoresis (MST) binding; details: read-out: dissociation constant (Kd)
Experimental: as §1, §2

DHp domain of RavS = test: microscale thermophoresis (MST) binding; set-up: species or system Xanthomonas campestris pv. campestris; details: DHp region
Experimental: as §1, §2

PAS-B of RavS = test: microscale thermophoresis (MST) binding; set-up: species or system Xanthomonas campestris pv. campestris; details: PAS-B region
Experimental: as §1, §2

PAS-A of RavS = test: microscale thermophoresis (MST) binding; set-up: species or system Xanthomonas campestris pv. campestris; details: PAS-A region
Experimental: as §1, §2

DHp-CA^R656A = molecular target: T1, DHp-CA^R656A (Xanthomonas campestris pv. campestris, UniProt Q8P9A6, R656A); test: microscale thermophoresis (MST) binding; details: compared with DHp-CA protein
T1 sequence (Q8P9A6 464-697 R656A): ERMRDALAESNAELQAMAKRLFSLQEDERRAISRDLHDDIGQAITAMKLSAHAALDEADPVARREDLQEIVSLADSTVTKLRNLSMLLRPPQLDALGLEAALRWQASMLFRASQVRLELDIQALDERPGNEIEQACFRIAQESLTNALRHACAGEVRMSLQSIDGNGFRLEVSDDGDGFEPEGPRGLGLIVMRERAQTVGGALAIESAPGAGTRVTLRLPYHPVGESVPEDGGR
Experimental: as §1, §2

PizD = molecular target: PizD; set-up: method as in PMID 26055114; details: lower end of reported range; cited from earlier work

SMILES | Kd (CA domain of RavS) | Kd (DHp-CA domain of RavS) | binding (MST) (DHp domain of RavS) | binding (MST) (PAS-B of RavS) | binding (MST) (PAS-A of RavS) | fold decrease in binding affinity (DHp-CA^R656A) | Kd (PizD)
Nc1nc2c(ncn2[C@@H]2O[C@@H]3COP(=O)(O)O[C@H]4[C@@H](OC(=O)NCCCCCCNC(=O)c5ccc6c(c5)C(=O)OC65c6ccc(O)cc6Oc6cc(O)ccc65)[C@H](n5cnc6c(=O)[nH]c(N)nc65)O[C@@H]4COP(=O)(O)O[C@H]3[C@H]2O)c(=O)[nH]1 [fl-c-di-GMP, 2′-Fluo-AHC-c-di-GMP] | 17.1 ± 3.78 µM | 6.25 ± 0.8 µM | no binding | no binding | no binding |  | 
Nc1nc2c(ncn2[C@@H]2O[C@@H]3COP(=O)(O)O[C@H]4[C@@H](O)[C@H](n5cnc6c(=O)[nH]c(N)nc65)O[C@@H]4COP(=O)(O)O[C@H]3[C@H]2O)c(=O)[nH]1 [c-di-GMP, Cyclic di-GMP] |  |  |  |  |  | 10 fold | 0.1 µM
